In patent US10934527B2, “Generation of lineage-restricted progenitor cells from differentiated cells” (The Regents of the University of California, priority 2011, dated 2021):
Entries after “also recorded” stand apart in the source; their conditions may differ.

Experiments:
primary myotubes = experiment: Apoptosis / cell death in treated primary myotubes; type: cell-based, mice
YFP+ myotubes = experiment: De-differentiation assay of lineage-marked YFP+ primary myotubes; type: cell-based, mice
Description: WT myoblasts or Tet-Oct4 (3×10^5) myoblasts upon 4-6 hour infection with 300 MOI of Ad-Cre virus were washed with growth medium twice to get rid of any residual virus and incubated for another 24 hours in growth medium at 37° C. in 5% CO2 incubator. These myoblasts were then lifted off from the plates by addition of 1×PBS, counted (3×10^4 cells/well) and co-cultured with 7×10^4 Lox-YFP myoblasts (obtained from B6.129X1-Gt(ROSA)26Sor^tm1(EYFP)Cos/J mice strain) per well in differentiation inducing medium DMEM (Cellgro)+2% horse serum+1% Penicillin/Streptomycin on 12 well (BD Falcon) on ECM (1:500) coated 12 well plates. […] The inhibitors were then withdrawn and cells were switched to growth medium containing bFGF (9 ng/ml). The treated cells were fed fresh growth medium and bFGF everyday over a period of time and the morphology of YFP expressing myotubes was routinely visualized by epifluorescence microscope using YFP filter and photographed using 10× and 20× objectives. For live Hoechst staining, 4 μM of Hoechst was added everyday to YFP labeled myotube cultures, incubated for 10 minutes at 37° C. in 5% CO2 incubator, washed off to remove unlabeled Hoechst and photographed.
The labeled YFP^+ myotubes per well in 4 day old Cre-Lox myotube cultures were determined to be ˜2600. After inhibitor treatment, ˜350 YFP^+ mononucleated cells were found in culture. […] Another method was based on the determination of Lox YFP myonuclei in labeled myotubes. […] Therefore, reprogramming efficiency calculated was the percent of YFP^+ mononucleated cells out of an estimated total number of Lox YFP myonuclei in YFP^+ myotubes and was determined ˜5.04% [(350/6940)×100] (see FIG. 11D).

[1] = 96 hour old YFP+ myotubes treated daily for 2 days in DM (10 μM), then switched to GM

In the case of “N-(2-Quinolyl)valyl-aspartyl-(2,6-difluorophenoxy)methyl ketone [Q-VD]”, the “apoptosis by doxorubicin in Cre-Lox myotube cultures” value (primary myotubes; with 0.2 uM doxorubicin for 48 hours) is reported as “reduced apoptosis” and the “appearance of YFP+ mononucleated cells from YFP+ myotubes” value (YFP+ myotubes; treated in DM, then switched to GM) is reported as “no YFP^+ mononucleated cells were observed”.
With COc1cccc2c1C(=O)c1c(O)c3c(c(O)c1C2=O)C[C@@](O)(C(=O)CO)C[C@@H]3O[C@H]1C[C@H](N)[C@H](O)[C@H](C)O1 [doxorubicin] the “appearance of YFP+ mononucleated cells from Cre-Lox myotubes” value (YFP+ myotubes; 0.2 uM for 48 hours, alone or in combination with the apoptosis inhibitor, then growth media 72-96 hours) was “no YFP^+ mononucleated cells were observed”.
In the case of O.O.O.OO.OO.[K+].[OH-].[V].c1cnc2c(c1)ccc1cccnc12 [BpV, potassium bisperoxo(1,10-phenanthroline)oxovanadate], the “cell death / apoptosis of myotubes” value (primary myotubes; myotubes treated with BpV alone) is reported as “cell death occurred; also recorded: did show apoptosis”, the “de-differentiation frequency / reprogramming efficiency, method 1: percent of YFP+ mononucleated cells out of the total number of labeled YFP+ myotubes” value (YFP+ myotubes; [1]) is reported as ~1.18% and the “reprogramming efficiency, method 2: percent of YFP+ mononucleated cells out of estimated total number of Lox YFP myonuclei in YFP+ myotubes” value (YFP+ myotubes; [1]) is reported as ~0.4%.
